Measurements published in paper PMC10508264, “Exploring the antioxidant, antimicrobial, cytotoxic and biothermodynamic properties of novel morpholine derivative bioactive Mn(II), Co(II) and Ni(II) complexes – combined experimental and theoretical measurements towards DNA/BSA/SARS-CoV-2 3CL^Pro” (RSC Medicinal Chemistry, 2023).
Several values for one entry are separate records, joined by “and”; a condition that tells them apart may be missing. Identical values can stand only once.

What was measured:
[1] = DPPH radical scavenging assay; format: biochemical; details: for % Inhibition, DPPH: 517 nm
[2] = test system: Escherichia coli; experiment: Agar disc diffusion, strain A; format: cell-based; design: Inhibition%: concentration or dose not given beside the values; details: for Diameter of clear zone inhibition: control (DMSO) 6 mm
[3] = biological target: BSA (Bos taurus, UniProt P02769); experiment: FRET computation, donor (BSA)–acceptor (compound); format: binding, bovine; design: kET (rate of energy transfer): unit not given here; details: for B (average brightness of complex–BSA system): free BSA 6573.60
Excerpt: The critical distance between donor and acceptor molecules can be estimated using the FRET approach to assess the binding affinity between BSA and a test substance.[13,33–35]
FRET is a non-destructive spectroscopic method consisting of a process between several electronic excited states of molecules that is dependent on distance (r). FRET can also be employed to distinguish the relative angular orientation and closeness of fluorophores.[82] The process happens when there is a large overlap between the absorption spectrum acceptor (compound/chromophore) and the donor's emission spectrum (BSA/fluorophore) (Fig. S30 ^†). Also, the average distance (r) between the donor and acceptor can be measured in accordance with this theory. Fluorescence is quenched due to energy being transmitted from the excited state of BSA to the substances (HL)/(1–3). As a result of the FRET analysis, the observed r findings were in the range of 2.4127–2.7129 nm (Table 5 and Fig. S30 ^†). […] The following conditions have a major impact on the effectiveness of FRET: (i) the distance (r) should be in the prescribed range of 2–8 nm for energy transfer; (ii) there is a large overlap between the emission spectrum of biomolecules (donors) and the electronic absorption spectrum of acceptors (substances); and (iii) the BSA and compound transition dipoles are oriented correctly. BSA transmits excitation energy to a compound during FRET without emitting a photon from the previous molecule system. Energy transfer (E) results were acquired from eqn (18) (Table 5). K^2 is associated with the geometry of the BSA and complex of the dipoles, the value for random orientation (K2 = 2/3) as in a fluid solution. Basically, the K^2 values were found in the range from 0 to 4, and energy can be transferred from BSA to the compound when electrons are transferred between the two molecules. For parallel transition dipoles that are aligned, K^2 is equal to 4, which denotes maximal energy transfer; and when the orientation of the dipoles is perpendicular to one another, K^2 is equal to 0, which denotes very weak energy transfer. When the relative orientation of the dipoles is random, K^2 is equal to 2/3. Eqn (20) is helpful for measuring the J values for overlap of the emission spectrum of BSA with the electronic absorption spectrum of the compound. The molar absorption coefficient (εA) and fluorescence emission intensity were both measured on the unit area scale of wavenumbers. It is imperative that J, after being normalized, is independent of the real size of εA. The following variables for the complex–BSA interaction are determined using eqn (18)–(23), n = 1.36, Φ = 0.15, E = 0.3462–0.5692, J = 0.8215–1.0886 × 10^−14 cm^3 L mol^−1, R0 = 2.4400–2.5573 nm, r = 2.4127–2.7129 nm, kET = 5.2941–13.2142 J s^−1 and B = 5339.79–6007.23 mol^−1 cm^−1 (Table 5). The observed values of R0 and r between BSA Trp213 and the interacting compound were substantially smaller than 8 nm and their relationships are found in the following sequence: 0.5R0 (1.2200–1.2786) < r (2.4127–2.7128) < 1.5R0 (3.6601–3.8358). […] Also, τ is denoted as the lifetime of fluorescence emission of the biomolecule and is described as the inverse of the entire degradation rate τ = 1/(kr + knr). The radiative lifetime of the fluorophore is represented as τ0 = 1/kr. The values of τ and Φ are associated with eqn (21) (Table 5). Quenching occurs when the ground or excited states of BSA come into contact with a compound in the solution. The intensity of fluorescence emission is also decreasing. Quenching is divided into the two main categories of dynamic and static quenching. While BSA is in an excited state, it binds with the substance during a dynamic or collisional quenching mechanism, and is then deactivated to the ground state without the emission of radiation. Therefore, the concentration of the quenching compounds affects dynamic quenching. The τ and Φ values for BSA diminish with an increase in the compound concentration. […]

## [Mn+2].[O-]c1ccccc1N=Cc1ccc(N2CCOCC2)cc1.[O-]c1ccccc1N=Cc1ccc(N2CCOCC2)cc1.c1ccc(-c2ccccn2)nc1 [(1)]
[1]; 40 µM
  % Inhibition, DPPH: 11.16%
[1]; 80 µM
  % Inhibition, DPPH: 18.62%
[1]; 120 µM
  % Inhibition, DPPH: 30.41%
[1]; 160 µM
  % Inhibition, DPPH: 37.32%
[1]; 200 µM
  % Inhibition, DPPH: 42.47%
[1]; 240 µM
  % Inhibition, DPPH: 62.23% and 58.05%
[2]
  Inhibition%: 40%
  Diameter of clear zone inhibition: 10 mm
[3]
  E (efficiency of energy transfer): 0.4462
  J (spectral overlap integral): 1.0886 × 10^−14 (LM^−1 cm^3)
  R0 (Förster radius): 2.5573 nm
  kET (rate of energy transfer): 8.0556
  r (donor–acceptor distance): 2.6511 nm
  B (average brightness of complex–BSA system): 6007.23 M⁻¹ cm⁻¹

## [Co+2].[O-]c1ccccc1N=Cc1ccc(N2CCOCC2)cc1.[O-]c1ccccc1N=Cc1ccc(N2CCOCC2)cc1.c1ccc(-c2ccccn2)nc1 [(2)]
[1]
  IC50: 200 µM
[1]; 40 µM
  % Inhibition, DPPH: 14.20%
[1]; 80 µM
  % Inhibition, DPPH: 26.76%
[1]; 120 µM
  % Inhibition, DPPH: 31.64%
[1]; 160 µM
  % Inhibition, DPPH: 45.67%
[1]; 200 µM
  % Inhibition, DPPH: 52.54%
[1]; 240 µM
  % Inhibition, DPPH: 62.23%
[2]
  Inhibition%: 40%
  Diameter of clear zone inhibition: 10 mm
[3]
  E (efficiency of energy transfer): 0.5000
  J (spectral overlap integral): 1.0201 × 10^−14 (LM^−1 cm^3)
  R0 (Förster radius): 2.5297 nm
  kET (rate of energy transfer): 10.000
  r (donor–acceptor distance): 2.5297 nm
  B (average brightness of complex–BSA system): 5835.99 M⁻¹ cm⁻¹

## [Ni+2].[O-]c1ccccc1N=Cc1ccc(N2CCOCC2)cc1.[O-]c1ccccc1N=Cc1ccc(N2CCOCC2)cc1.c1ccc(-c2ccccn2)nc1 [(3)]
[1]; 40 µM
  % Inhibition, DPPH: 13.08%
[1]; 80 µM
  % Inhibition, DPPH: 24.74%
[1]; 120 µM
  % Inhibition, DPPH: 30.86%
[1]; 160 µM
  % Inhibition, DPPH: 41.06%
[1]; 200 µM
  % Inhibition, DPPH: 49.83%
[1]; 240 µM
  % Inhibition, DPPH: 60.02%
[2]
  Inhibition%: 50%
  Diameter of clear zone inhibition: 12 mm
[3]
  E (efficiency of energy transfer): 0.5692
  J (spectral overlap integral): 1.0145 × 10^−14 (LM^−1 cm^3)
  R0 (Förster radius): 2.5274 nm
  kET (rate of energy transfer): 13.2142
  r (donor–acceptor distance): 2.4127 nm
  B (average brightness of complex–BSA system): 5822.04 M⁻¹ cm⁻¹

## Oc1ccccc1N=Cc1ccc(N2CCOCC2)cc1 [(HL), 2-(4-morpholinobenzylideneamino)phenol]
[1]; 40 µM
  % Inhibition, DPPH: 09.45%
[1]; 80 µM
  % Inhibition, DPPH: 15.21%
[1]; 120 µM
  % Inhibition, DPPH: 26.36%
[1]; 160 µM
  % Inhibition, DPPH: 34.56%
[1]; 200 µM
  % Inhibition, DPPH: 39.41%
[1]; 240 µM
  % Inhibition, DPPH: 52.45%
[2]
  Inhibition%: 33%
  Diameter of clear zone inhibition: 09 mm
[3]
  E (efficiency of energy transfer): 0.3462
  J (spectral overlap integral): 0.8215 × 10^−14 (LM^−1 cm^3)
  R0 (Förster radius): 2.4400 nm
  kET (rate of energy transfer): 5.2941
  r (donor–acceptor distance): 2.7129 nm
  B (average brightness of complex–BSA system): 5339.79 M⁻¹ cm⁻¹
